Where two headings read alike, the source gives them in different places.
Experiment: Study BP39055 Part 1: pharmacokinetics (AUC0-24h,ss) in SMA patients
Type: in vivo, human
Settings: for AUC(0-t): human, in vivo, read-out: estimated AUC0-24h,ss, median
Excerpt: Study BP39055 is a two-part operationally seamless, multi-center, randomized, placebo-controlled, double-blind study to investigate the safety, tolerability, pharmacokinetics (PK), pharmacodynamics (PD) and efficacy of RO7034067 in Type 2 and 3 spinal muscular atrophy (SMA) patients. The study consists of an exploratory dose-finding part (Part 1) and a confirmatory part (Part 2).
The primary objective of Part 1 is to evaluate the safety, tolerability, PK and PD of RO7034067 in patients with Type 2 and Type 3 (ambulant or non-ambulant) SMA, and to select the dose for Part 2 of the study.
Part 1 was a double-blinded, placebo-controlled, randomized (2:1 RO7034067:placebo), exploratory dose-finding study in Type 2 and Type 3 (ambulant and non-ambulant) SMA patients. This will be followed by an open-label extension (OLE) at the same dose as selected for Part 2 of the study.
Part 1 of the study enrolled patients in two age groups: • Group A: adolescent and adult patients aged 12 25 years • Group B: children aged 2 11 years RO7034067 dose levels were investigated in a staggered, dose escalation manner in both age groups.
The dose recommended by the IMC for this age group according to the target AUC0-24 h,ss of 700 ng[…]h/mL was 0.02 mg/kg (see IMC recommendation of 12 Dec. 2016 in Appendix 1); 10 patients aged 3-11 years were enrolled in Cohort B1. • At the same time point (i.e., once safety and tolerability were confirmed based on the review of at least 4 weeks of treatment at 3 mg once daily in 9 patients in Cohort A1), enrolment was opened to another cohort of 9 adult and adolescent patients (Cohort A2) receiving RO7034067 5 mg once daily (see IMC recommendation of 19 Jan. 2017 in Appendix 1). As per protocol, the higher dose level was determined such as to achieve maximum SMN protein increase, without exceeding the exposure cap (Cmax 400 ng/mL; mean AUC0 24 h,ss 2000 ng[…]h/mL); 10 patients aged 13[…]24 years were enrolled in Cohort A2. • Based on the review of a minimum of 4 weeks of treatment at 0.02 mg/kg in 9 patients enrolled in Cohort B1, the following recommendations were made by the IMC: i) to increase the dose in these patients to 0.05 mg/kg without exceeding a cap dose of 3 mg, and ii) to enroll a minimum of 9 additional patients aged 2[…]11 years at a dose of 0.05 mg/kg without exceeding a cap dose of 3 mg (Cohort B2), targeting at least 5 patients aged 2[…]6 years (see IMC recommendation of 13 Mar. […] At the same time point, enrollment was opened to another cohort of 9 patients at the dose of 0.25 mg/kg without exceeding a cap dose of 5 mg (Cohort B3), determined such as to achieve maximum Survival of Motor Neuron (SMN) protein increase, without exceeding the exposure cap (Cmax 400 ng/mL; mean AUC0-24 h,ss 2000 ng[…]h/mL); 10 patients aged 2[…]11 years were enrolled in Cohort B3. • Upon completion of at least 12 weeks of placebo-controlled treatment by a minimum of 9 patients of each cohort, the IMC reviewed all available data from the cohort to make the decision to switch placebo patients to active treatment at the dose tested in their respective cohort. Dates of the IMC decisions to switch placebo patients to active treatment in the respective cohorts are provided in Section 1.3. • For the last cohort in Part 1 (Cohort B3), all available safety, tolerability, PK and PD data following completion of a minimum of 4 weeks treatment by the 9th patient (including all available data for the 10th patient of the last cohort who was enrolled approximately 1 week after the 9th patient, and all available data from all previous cohorts) were reviewed by the IMC in order to select the dose to be administered in Part 2 of the study. This dose selection was confirmed by the external iDMC following review of the same data package. […]

For `Cc1cn2nc(-c3cc(=O)n4cc(N5CCNC6(CC6)C5)ccc4n3)cc(C)c2n1` [RO7034067, 7-(4,7-diazaspiro[2.5]octan-7-yl)-2-(2,8-dimethylimidazo[1,2-b]pyridazin-6-yl)pyrido[1,2-a]pyrimidin-4-one], the AUC(0-t) (2-11 yr, 0.02 mg/kg) was 133 ng·h/mL, the AUC(0-t) (2-11 yr, 0.05 mg/kg) was 407 ng·h/mL and the AUC(0-t) (2-11 yr, 0.15 mg/kg) was 822 ng·h/mL. It also gave an AUC(0-t) (2-11 yr, 0.25 mg/kg) of 1450 ng·h/mL, an AUC(0-t) (12-25 yr, 3 mg) of 1040 ng·h/mL and an AUC(0-t) (12-25 yr, 5 mg) of 1610 ng·h/mL. For the same compound, the “predicted mean exposure (AUC0-24h,ss)” value (selected BP39055 Part 2 dose, all patients 2-25 years of age) was 1690 ng·h/mL.

Source: patent US12350273B2, “Treatment of SMA” (Hoffmann-La Roche Inc., priority 2017, dated 2025)
